46 compounds from ChEMBL document CHEMBL4028802, “DILIrank: the largest reference drug list ranked by the risk for developing drug-induced liver injury in humans” (Drug Discov Today, 2016) can be followed below.

Data set [1] is filed under the species Homo sapiens. In words: Liver toxicity in human assessed as induction of drug-induced liver injury by measuring severity class index.
For data set [2], the species on record is Homo sapiens. Kind of data set: Liver toxicity in human assessed as induction of drug-induced liver injury by measuring verified drug-induced liver injury concern status.

Non-standard residues stand in square brackets, D forms with d. Residues, ends and D or L forms follow the SMILES beside them. d(hArg(Et2)) = CCN=C(NCC)NCCCC[C@@H](N)C(=O)O; hArg(Et2) = CCN=C(NCC)NCCCC[C@H](N)C(=O)O; dPhe(4-Cl) = N[C@H](Cc1ccc(Cl)cc1)C(=O)O; d2Nal = N[C@H](Cc1ccc2ccccc2c1)C(=O)O; d3Pal = N[C@H](Cc1cccnc1)C(=O)O
For DILI severity class in this document: key of the grades not given here.

Take `CO[C@H]1O[C@H](COS(=O)(=O)[O-])[C@@H](O[C@@H]2O[C@@H](C(=O)[O-])[C@@H](O[C@H]3O[C@H](COS(=O)(=O)[O-])[C@@H](O[C@@H]4O[C@H](C(=O)[O-])[C@@H](O[C@H]5O[C@H](COS(=O)(=O)[O-])[C@@H](O)[C@H](O)[C@H]5NS(=O)(=O)[O-])[C@H](O)[C@H]4O)[C@H](OS(=O)(=O)[O-])[C@H]3NS(=O)(=O)[O-])[C@H](O)[C@H]2OS(=O)(=O)[O-])[C@H](O)[C@H]1NS(=O)(=O)[O-].[Na+].[Na+].[Na+].[Na+].[Na+].[Na+].[Na+].[Na+].[Na+].[Na+]` [FONDAPARINUX SODIUM]: the DILI_severity_class in the data set listed under Homo sapiens [1] is on record as 3. Besides, the DILI_Concern entry in the data set listed under Homo sapiens [2] is “Less-Dili-Concern”.
For `CC(C)CN(C[C@@H](OP(=O)(O)O)[C@H](Cc1ccccc1)NC(=O)O[C@H]1CCOC1)S(=O)(=O)c1ccc(N)cc1` [FOSAMPRENAVIR], in that order: 3 and “Ambiguous-Dili-Concern”.
The like results for `C[C@@H](O[C@H]1OCCN(Cc2nc(O)n(P(=O)(O)O)n2)[C@H]1c1ccc(F)cc1)c1cc(C(F)(F)F)cc(C(F)(F)F)c1` [FOSAPREPITANT] were, in that order, 3 and “Ambiguous-Dili-Concern”.
Turning to `O=C(O)P(=O)(O)O` [FOSCARNET], in the data set listed under Homo sapiens [1], the DILI_severity_class turned out to be 3. The DILI_Concern result in the data set filed under Homo sapiens [2] is recorded as “Ambiguous-Dili-Concern”.
Regarding `C[C@@H]1O[C@@H]1P(=O)(O)O` [FOSFOMYCIN], in the data set listed under Homo sapiens [1], the DILI_severity_class is 6. Moreover, the DILI_Concern result in the data set listed under Homo sapiens [2] is “Less-Dili-Concern”.
For `CCC(=O)O[C@@H](O[P@](=O)(CCCCc1ccccc1)CC(=O)N1C[C@H](C2CCCCC2)C[C@H]1C(=O)O)C(C)C` [FOSINOPRIL], in that order: 3 and “Less-Dili-Concern”.
The like results for `O=C1NC(c2ccccc2)(c2ccccc2)C(=O)N1COP(=O)(O)O` [FOSPHENYTOIN] were, in that order, 8 and “Most-Dili-Concern”.
For `CC(C)c1cccc(C(C)C)c1OCOP(=O)(O)O` [FOSPROPOFOL], in that order: 0 and “Less-Dili-Concern”.
In the case of `CN[C@@H]1CCc2[nH]c3ccc(C(N)=O)cc3c2C1` [FROVATRIPTAN], the DILI_severity_class in the data set filed under Homo sapiens [1] was found to be 0. The DILI_Concern result in the data set filed under Homo sapiens [2] is “No-Dili-Concern”.
For the compound `C[C@]12CC[C@@H]3c4ccc(O)cc4C[C@@H](CCCCCCCCC[S+]([O-])CCCC(F)(F)C(F)(F)F)[C@H]3[C@@H]1CC[C@@H]2O` (some centres not stated) [FULVESTRANT], the DILI_severity_class in the data set filed under Homo sapiens [1] came to 7. Also, the DILI_Concern entry in the data set filed under Homo sapiens [2] was “Ambiguous-Dili-Concern”.
For `NCC1(CC(=O)O)CCCCC1` [GABAPENTIN], in that order: 3 and “Less-Dili-Concern”.
The like results for `COc1ccc2c3c1O[C@H]1C[C@@H](O)C=C[C@@]31CCN(C)C2` [GALANTAMINE] were, in that order, 3 and “Ambiguous-Dili-Concern”.
The like results for `Nc1nc(O)c2ncn(COC(CO)CO)c2n1` [GANCICLOVIR] were, in that order, 7 and “Ambiguous-Dili-Concern”.
Consider `CC(=O)O.CC(=O)O.CC/N=C(\NCC)NCCCC[C@H](NC(=O)[C@H](CC(C)C)NC(=O)[C@@H](CCCCN/C(=N/CC)NCC)NC(=O)[C@H](Cc1ccc(O)cc1)NC(=O)[C@H](CO)NC(=O)[C@@H](Cc1cccnc1)NC(=O)[C@@H](Cc1ccc(Cl)cc1)NC(=O)[C@@H](Cc1ccc2ccccc2c1)NC(C)=O)C(=O)N1CCC[C@H]1C(=O)N[C@H](C)C(N)=O` [GANIRELIX ACETATE] (Ac-[d2Nal][dPhe(4-Cl)][d3Pal]SY[d(hArg(Et2))]L[hArg(Et2)]P[dA]-NH2), for which, in the data set listed under Homo sapiens [1], the DILI_severity_class is 0. Further, the DILI_Concern entry in the data set filed under Homo sapiens [2] is on record as “No-Dili-Concern”.
Regarding `COc1cc2ncnc(Nc3ccc(F)c(Cl)c3)c2cc1OCCCN1CCOCC1` [GEFITINIB], the DILI_severity_class in the data set filed under Homo sapiens [1] is on record as 4. In the data set listed under Homo sapiens [2], the DILI_Concern result is listed as “Most-Dili-Concern”.
For `Nc1ccn([C@@H]2O[C@H](CO)[C@@H](O)C2(F)F)c(=O)n1` [GEMCITABINE], in that order: 8 and “Most-Dili-Concern”.
For `Cc1ccc(C)c(OCCCC(C)(C)C(=O)O)c1` [GEMFIBROZIL], in that order: 4 and “Most-Dili-Concern”.
In the case of `CO/N=C1\CN(c2nc3c(cc2F)c(=O)c(C(=O)O)cn3C2CC2)CC1CN` (configuration not stated) [GEMIFLOXACIN], the DILI_severity_class in the data set listed under Homo sapiens [1] was 3. For the same compound, the DILI_Concern result in the data set listed under Homo sapiens [2] is “Less-Dili-Concern”.
The like results for `O=C(OCC(O)CO)c1ccccc1Nc1ccnc2cc(Cl)ccc12` (configuration not stated) [GLAFENINE] were, in that order, 8 and “Most-Dili-Concern”.
For `CCC1=C(C)CN(C(=O)NCCc2ccc(S(=O)(=O)NC(=O)N[C@H]3CC[C@H](C)CC3)cc2)C1=O` [GLIMEPIRIDE], in that order: 7 and “Less-Dili-Concern”.
As to `Cc1cnc(C(=O)NCCc2ccc(S(=O)(=O)NC(=O)NC3CCCCC3)cc2)cn1` [GLIPIZIDE], the DILI_severity_class in the data set filed under Homo sapiens [1] was determined as 3. Also, the DILI_Concern entry in the data set listed under Homo sapiens [2] is listed as “Less-Dili-Concern”.
The like results for `NC(=O)CC[C@H](N)C(=O)O` [GLUTAMINE] were, in that order, 3 and “Ambiguous-Dili-Concern”.
For `COc1ccc(Cl)cc1C(=O)NCCc1ccc(S(=O)(=O)NC(=O)NC2CCCCC2)cc1` [GLYBURIDE], in that order: 3 and “Less-Dili-Concern”.
Regarding `C[N+]1(C)CCC(OC(=O)C(O)(c2ccccc2)C2CCCC2)C1` (configuration not stated) [GLYCOPYRRONIUM], in the data set filed under Homo sapiens [1], the DILI_severity_class was 0. For the same compound, the DILI_Concern entry in the data set listed under Homo sapiens [2] is listed as “No-Dili-Concern”.
Take `CC(C)C[C@H](NC(=O)[C@@H](COC(C)(C)C)NC(=O)[C@H](Cc1ccc(O)cc1)NC(=O)[C@H](CO)NC(=O)[C@H](Cc1c[nH]c2ccccc12)NC(=O)[C@H](Cc1cnc[nH]1)NC(=O)[C@@H]1CCC(=O)N1)C(=O)N[C@@H](CCCNC(=N)N)C(=O)N1CCC[C@H]1C(=O)NNC(N)=O` [GOSERELIN]: the DILI_severity_class in the data set listed under Homo sapiens [1] was found to be 3. The DILI_Concern result in the data set listed under Homo sapiens [2] is recorded as “Ambiguous-Dili-Concern”.
For `CN1C2CCCC1CC(NC(=O)c1nn(C)c3ccccc13)C2` (configuration not stated) [GRANISETRON], in that order: 3 and “Ambiguous-Dili-Concern”.
As to `COC1=CC(=O)C[C@@H](C)[C@]12Oc1c(Cl)c(OC)cc(OC)c1C2=O` [GRISEOFULVIN], the DILI_severity_class in the data set filed under Homo sapiens [1] is 8. In addition, the DILI_Concern result in the data set filed under Homo sapiens [2] is given as “Most-Dili-Concern”.
The like results for `COc1ccccc1OCC(O)CO` (configuration not stated) [GUAIFENESIN] were, in that order, 0 and “No-Dili-Concern”.
Consider `N=C(N)NCCN1CCCCCCC1` [GUANETHIDINE], for which the DILI_severity_class in the data set filed under Homo sapiens [1] is recorded as 0. In the data set listed under Homo sapiens [2], the DILI_Concern result is recorded as “No-Dili-Concern”.
The like results for `N=C(N)NC(=O)Cc1c(Cl)cccc1Cl` [GUANFACINE] were, in that order, 3 and “Ambiguous-Dili-Concern”.
Turning to `N=C(N)N` [GUANIDINE], the DILI_severity_class in the data set filed under Homo sapiens [1] is listed as 3. In the data set filed under Homo sapiens [2], the DILI_Concern entry is “Ambiguous-Dili-Concern”.
`CCCCCCCCCC(=O)OC1(c2ccc(Cl)cc2)CCN(CCCC(=O)c2ccc(F)cc2)CC1` [HALOPERIDOL DECANOATE]: the DILI_severity_class in the data set listed under Homo sapiens [1] worked out at 3. Further, the DILI_Concern result in the data set filed under Homo sapiens [2] was “Ambiguous-Dili-Concern”.
With `O=C(CCCN1CCC(O)(c2ccc(Cl)cc2)CC1)c1ccc(F)cc1` [HALOPERIDOL], the DILI_severity_class in the data set listed under Homo sapiens [1] is on record as 5. Also, the DILI_Concern result in the data set filed under Homo sapiens [2] was “Less-Dili-Concern”.
For `NCCc1c[nH]cn1.O=P(O)(O)O.O=P(O)(O)O` [HISTAMINE PHOSPHATE], in that order: 0 and “No-Dili-Concern”.
For `CC(=O)O.CCNC(=O)[C@@H]1CCCN1C(=O)[C@H](CCCNC(=N)N)NC(=O)[C@H](CC(C)C)NC(=O)[C@@H](Cc1cn(Cc2ccccc2)cn1)NC(=O)[C@H](Cc1ccc(O)cc1)NC(=O)[C@H](CO)NC(=O)[C@H](Cc1c[nH]c2ccccc12)NC(=O)[C@H](Cc1cnc[nH]1)NC(=O)[C@@H]1CCC(=O)N1` [HISTRELIN ACETATE], in that order: 3 and “Ambiguous-Dili-Concern”.
With `NNc1nncc2ccccc12` [HYDRALAZINE], the DILI_severity_class in the data set listed under Homo sapiens [1] was found to be 3. Besides, the DILI_Concern result in the data set filed under Homo sapiens [2] is reported as “Less-Dili-Concern”.
In the case of `NS(=O)(=O)c1cc2c(cc1Cl)NCNS2(=O)=O` [HYDROCHLOROTHIAZIDE], in the data set listed under Homo sapiens [1], the DILI_severity_class is reported as 2. In the data set listed under Homo sapiens [2], the DILI_Concern entry was “Less-Dili-Concern”.
Consider `C[C@]12CCC(=O)C=C1CC[C@@H]1[C@@H]2[C@@H](O)C[C@@]2(C)[C@H]1CC[C@]2(O)C(=O)CO` [HYDROCORTISONE], for which the DILI_severity_class in the data set filed under Homo sapiens [1] is 0. Further, the DILI_Concern result in the data set filed under Homo sapiens [2] is “No-Dili-Concern”.
`NS(=O)(=O)c1cc2c(cc1C(F)(F)F)NCNS2(=O)=O` [HYDROFLUMETHIAZIDE]: in the data set filed under Homo sapiens [1], the DILI_severity_class is 2. For the same compound, the DILI_Concern result in the data set filed under Homo sapiens [2] is “Ambiguous-Dili-Concern”.
The like results for `CN1CC[C@]23c4c5ccc(O)c4O[C@H]2C(=O)CC[C@H]3[C@H]1C5` [HYDROMORPHONE] were, in that order, 3 and “Ambiguous-Dili-Concern”.
As to `CCN(CCO)CCCC(C)Nc1ccnc2cc(Cl)ccc12` (configuration not stated) [HYDROXYCHLOROQUINE], the DILI_severity_class in the data set filed under Homo sapiens [1] is 7. Moreover, the DILI_Concern result in the data set listed under Homo sapiens [2] is “Less-Dili-Concern”.
The like results for `CCCCCC(=O)O[C@]1(C(C)=O)CC[C@H]2[C@@H]3CCC4=CC(=O)CC[C@]4(C)[C@H]3CC[C@@]21C` [HYDROXYPROGESTERONE CAPROATE] were, in that order, 2 and “Ambiguous-Dili-Concern”.
The like results for `NC(=O)NO` [HYDROXYUREA] were, in that order, 8 and “Most-Dili-Concern”.
As for `OCCOCCN1CCN(C(c2ccccc2)c2ccc(Cl)cc2)CC1` (configuration not stated) [HYDROXYZINE], the DILI_severity_class in the data set listed under Homo sapiens [1] was 0. Also, the DILI_Concern entry in the data set filed under Homo sapiens [2] was “No-Dili-Concern”.
The like results for `CCCCCN(C)CCC(O)(P(=O)(O)O)P(=O)(O)O` [IBANDRONIC ACID] were, in that order, 0 and “No-Dili-Concern”.
The like results for `CC(C)Cc1ccc(CC(=O)O)cc1` [IBUFENAC] were, in that order, 8 and “Most-Dili-Concern”.
